Legend:
[1] = tested on: RAW264.7, JAWSII and DC2.4 cell lines; experiment: Cy5-pEGFP plasmid entry and expression in antigen presenting cell lines; type: cell-based
Protocol: (§1) With respect to cell culture and inhibiter treatment, RAW264.7 and DC2.4 were cultured in DMEM/10% FCS, and JAWSII was cultured in DMEM/10% FCS with GMCSF (1000 U/ml, Peprotech, USA). Amiloride (Sigma-Aldrich, USA) was prepared as 10 mM solution and was diluted to 1 mM, 100 uM, 10 uM in DMEM medium before treatment. After culture medium was removed, cells were treated with amiloride, MβCD (5 mM, Sigma) or Fillipin (10 ng/ml, sigma) at 37° C. for 1 h. LPS (10 ng/ml, sigma) or 10 ng/ml DNA in DMEM was added at 37° C. for 0.5 h, after wash, culture medium was added and cells were cultured.
With respect to plasmid preparation and fluorescence conjugation, pEGFP (Clontech, USA) and pcD-S2 plasmid were prepared from DH5a culture, purified by EndoFree Plasmid Maxi Kit (Qiagen, Germany) and endotoxin was below 10 EU/mg by LAL test. Cy5 was conjugated to plasmid with Minis Label IT Kit (Minis, USA) as manual instructed.

[2] = tested on: Cy5-plasmid+ cells in lymph nodes; experiment: Cy5-pEGFP plasmid entry in vivo, Cy5+ cells in draining lymph nodes by FACS; parameters: species or system C57B/6 mice; conditions: hind footpad, 4 hrs
Protocol: (§2) 4 h later, both inguinal lymph nodes were collected.

[3] = tested on: RAW264.7; experiment: APC maturation markers and innate cytokine secretion with pcD-S2; type: cell-based; conditions: pcD-S2 with vs without amiloride
Protocol: as §1

[4] = tested on: HBsAg; experiment: Antibody against HBsAg after footpad immunization; type: in vivo, C57B/6 mice
[5] = tested on: CD8+ T effectors; experiment: Multi-color flow cytometry of CD8+ T effectors (IFN-γ, perforin, granzyme B); type: in vivo, mice; conditions: HBsAg restimulation
Protocol: as §2
With respect to multi-color flow cytometry, a multi-color panel was set up with anti-CD3, anti-CD8, anti-IFN-γ, anti-perforin and anti-granzyme B. After restimulation in vitro by sAg for 24 h or S208-215 for 12 h, following monensin block for 6 h, splenocyte was fixed, penetrated and stained. Data was collected with BD Aria and analyzed with Flowjo (Tree Star, Ashland, USA).

[6] = tested on: CD8 T cells co-cultured with peritoneal macrophages or spleen dendritic cells; experiment: Co-culture of treated APCs with purified CD8 T cells; type: cell-based, mice; conditions: macrophages and DCs co-culture; pcD-S2 with vs without amiloride
Protocol: With respect to co-cultures, pcD-S2 (10 μg/ml) with or without 100 μM amiloride treat APCs, peritoneal macrophage or spleen dendritic cell, were cultured for 2 days. At day 3, purified CD8 T cell (R&D systems, USA) was added into culture with APC:T ratio of 1:5, 1:2, 1:1. At day 8, cells were collected and restimulated with S208-215 (10 μg/ml). PMA+Ionomycin was added as positive control for restimulation.

SMILES: N=C(N)NC(=O)c1nc(Cl)c(N)nc1N [amiloride]
- GFP expression ([1]; 1 mM amiloride pre-treatment, after 3 days culture, vs un-treated cells): significantly higher level of GFP
- GFP expression relative to liposome treated cells ([1]; 1 mM amiloride, 3 days): comparable with that of liposome treated cells
- uptake of Cy5-labeled pEGFP plasmids ([1]; pre-treated with 1 mM amiloride for 1 h, within 2 hrs, vs un-treated cells): significantly taken up
- percentage of Cy5-plasmid+ cells in lymph nodes (LN) ([2]; 10 μM amiloride): increased
- percentage of Cy5-plasmid+ cells in lymph nodes (LN) ([2]; 100 μM amiloride): peaked
- percentage of Cy5-plasmid+ cells in lymph nodes (LN) ([2]; 1 mM amiloride): decreased
- expression of TNF and IFN-γ ([3]; RAW264.7): higher levels of expression of TNF and IFN-γ
- expression of maturation markers CD40, CD80 and CD86 ([3]; RAW264.7 in vitro): higher levels of expression of CD40, CD80 and CD86
- most effective dose of amiloride for in vivo treatment ([4]; antibody and DTH experiments): 1 mM
- levels of antibody against HBsAg ([4]; footpad immunization, vs pcD-S2 alone, dose dependent): increased
- triple positive cells in HBsAg stimulated CD8 response [5]: triple positive cells could also be observed
- percentage of S208-215 specific triple positive CD8 T effectors [6]: significantly increased
